According to patent US20210238139A1, “MODULATORS OF TRYPTOPHAN CATABOLISM” (E-Therapeutics PLC, priority 2018, published 2021):

The compounds below were run on SK-OV-3 cells (assay: Effect of compounds on tryptophan catabolism in SK-OV-3 cell line (inhibition of kynurenine production, LC-MS/MS)). Details: Homo sapiens, SK-OV-3, 24 h, SK-OV-3 cell line, 24 h incubation, kynurenine in supernatant by LC-MS/MS; read-out: IC50 Ranges (ic50 values for inhibition of Kynurenine production).
Format: cell-based
Method: SK-OV-3 cells are seeded in 96-well plates in McCoy's 5A medium supplemented with 10% FBS and incubated overnight at 37° C., 5% CO2, 95% humidity. The […] growth medium is replaced with DMEM F-12 medium supplemented with 6 mg/mL L-tryptophan. Compounds are added to the wells and incubated for 24 h at 37° C., 5% CO2, 95% humidity. Compounds are tested at 8 consecutive 3-fold dilutions starting from 30 μM in duplicate. At the end of incubation, concentration of kynurenine in cell supernatants is […] determined by LC-MS/MS. In parallel, cell viability is assessed by measurement of ATP using CellTiter Glo assay (Promega), according to manufacturer's protocol. Inhibition of Kyn production is calculated using the following formula: […] IC50 ranges for compounds of the invention are presented in Table 2, whereby the IC50 ranges are as follows: • A: […]

`CC(=O)c1ccc(NC(=O)N(Cc2ccc(C)o2)C2CCCC2)cc1` [Compound 94, 3-(4-acetylphenyl)-1-cyclopentyl-1-[(5-methyl-2-furyl)methyl]urea] and `Cc1ccc(CN(C(=O)Nc2ccc(C(N)=O)cc2)C2CCCC2)o1` [Compound 117, 4-[[cyclopentyl-[(5-methyl-2-furyl)methyl]carbamoyl]-amino]benzamide] fall in the same range of IC50: 1 to 5 µM for the first, 1 to 5 µM for the second.

First: Cc1ccc(CN(C(=O)Nc2ccccc2C#N)C2CCCC2)o1 [Compound 95, 3-(2-cyanophenyl)-1-cyclopentyl-1-[(5-methyl-2-furyl)methyl]urea]
Second: Cc1ccc(CN(C(=O)Nc2ccc(C#N)cn2)C2CCCC2)o1 [Compound 121, 3-(5-cyano-2-pyridyl)-1-cyclopentyl-1-[(5-methyl-2-furyl)methyl]urea]
The IC50 of the first is higher: 1 to 5 µM for the first, 0.5 to 1 µM for the second. The second is the more potent here.

First: Cc1ccc(CN(C(=O)NCc2ccc(C#N)cc2)C2CCCC2)o1 [Compound 96, 3-[(4-cyanophenyl)methyl]-1-cyclopentyl-1-[(5-methyl-2-furyl)methyl]urea]
Second: Cc1ccc(CN(C(=O)Nc2ccc(C#N)nc2)C2CCCC2)o1 [Compound 124, 3-(6-cyano-3-pyridyl)-1-cyclopentyl-1-[(5-methyl-2-furyl)methyl]urea]
The IC50 of the first is higher: > 5 µM for the first, 0.1 to 0.5 µM for the second.

`CC(=O)N1CCC(C)(CN(C(=O)Nc2ccccc2)C2CCCC2)CC1` [Compound 97, 1-[(1-acetyl-4-methyl-4-piperidyl)methyl]-1-cyclopentyl-3-phenyl-urea] and `CC(C)(C)OC(=O)N1CCC(CN(C(=O)Nc2ccccc2)C2CCCC2)CC1` [Compound 118, tert-butyl 4-[[cyclopentyl(phenylcarbamoyl)amino]methyl]piperidine-1-carboxylate] fall in the same range of IC50: 1 to 5 µM for the first, 1 to 5 µM for the second.

Compared with `Cc1ccc(CN(C(=O)Nc2ccc(-c3cnn(C(=O)OC(C)(C)C)c3)cc2)C2CCCC2)o1` [Compound 99, tert-butyl 4-[4-[[cyclopentyl-[(5-methyl-2-furyl)methyl]carbamoyl]amino]phenyl]pyrazole-1-carboxylate], `Cc1ccc(CN(C(=O)Nc2ccc(-c3cnn(C(C)(C)CO)c3)cc2)C2CCCC2)o1` [Compound 101, 1-cyclopentyl-3-[4-[1-(2-hydroxy-1,1-dimethyl-ethyl)pyrazol-4-yl]phenyl]-1-[(5-methyl-2-furyl)methyl]urea] is higher in IC50: 0.5 to 1 µM for the first, > 5 µM for the second. The first is the more potent here.

Compared with `Cc1ccc(CN(C(=O)Nc2ccc(-c3cnn(CCN(C)C)c3)cc2)C2CCCC2)o1` [Compound 100, 1-cyclopentyl-3-[4-[1-[2-(dimethylamino)ethyl]pyrazol-4-yl]phenyl]-1-[(5-methyl-2-furyl)methyl]urea], `Cc1ccc(CN(C(=O)Nc2ccc(-c3cn[nH]c3)cc2)C2CCCC2)o1` [Compound 108, 1-cyclopentyl-1-[(5-methyl-2-furyl)methyl]-3-[4-(1H-pyrazol-4-yl)phenyl]urea] is lower in IC50: > 5 µM for the first, 0.1 to 0.5 µM for the second.

First: Cc1ccc(CN(C(=O)Nc2ccc(N3CCCC3=O)cc2)C2CCCC2)o1 [Compound 103, 1-cyclopentyl-1-[(5-methyl-2-furyl)methyl]-3-[4-(2-oxopyrrolidin-1-yl)phenyl]urea]
Second: Cc1ccc(CN(C(=O)Nc2ccc(C#CC3CC3)cc2)C2CCCC2)o1 [Compound 107, 1-cyclopentyl-3-[4-(2-cyclopropylethynyl)phenyl]-1-[(5-methyl-2-furyl)methyl]urea]
The IC50 of the first is higher: 1 to 5 µM for the first, < 0.1 µM for the second. The second is the more potent here.

First: Cc1ccc(CN(C(=O)Nc2ccc(-c3cscn3)cc2)C2CCCC2)o1 [Compound 106, 1-cyclopentyl-1-[(5-methyl-2-furyl)methyl]-3-(4-thiazol-4-ylphenyl)urea]
Second: Cc1ccc(CN(C(=O)Nc2ccc(-c3ccccc3)cc2)C2CCCC2)o1 [Compound 150, 1-cyclopentyl-1-[(5-methyl-2-furyl)methyl]-3-(4-phenylphenyl)urea]
The IC50 of the first is higher: 0.5 to 1 µM for the first, 0.1 to 0.5 µM for the second. The second is the more potent here.

First: Cc1ccc(CN(C(=O)Nc2ccc(C#CCN(C)C)cc2)C2CCCC2)o1 [Compound 112, 1-cyclopentyl-3-[4-[3-(dimethylamino)prop-1-ynyl]phenyl]-1-[(5-methyl-2-furyl)methyl]urea]
Second: C#Cc1ccc(NC(=O)N(Cc2cc3ccccc3o2)C2CCCC2)cc1 [Compound 131, 1-(benzofuran-2-ylmethyl)-1-cyclopentyl-3-(4-ethynylphenyl)urea]
The IC50 of the first is higher: 0.5 to 1 µM for the first, < 0.1 µM for the second. The second is the more potent here.

First: CC1(CN(C(=O)Nc2ccc(F)cc2)C2CCCC2)CCN(S(C)(=O)=O)CC1 [Compound 113, 1-cyclopentyl-3-(4-fluorophenyl)-1-[(4-methyl-1-methylsulfonyl-4-piperidyl)methyl]urea]
Second: CC(C)(C)OC(=O)N1CCC(CN(C(=O)Nc2ccc(F)cc2)C2CCCC2)CC1 [Compound 119, tert-butyl 4-[[cyclopentyl-[(4-fluorophenyl)carbamoyl]amino]methyl]piperidine-1-carboxylate]
The IC50 of the first is higher: 1 to 5 µM for the first, 0.5 to 1 µM for the second.

`N#Cc1cc(CN(C(=O)Nc2ccc(Cl)cc2)C2CCCC2)ccn1` [Compound 114, 3-(4-chlorophenyl)-1-[(2-cyano-4-pyridyl)methyl]-1-cyclopentyl-urea] and `N#Cc1ccnc(CN(C(=O)Nc2ccc(Cl)cc2)C2CCCC2)c1` [Compound 116, 3-(4-chlorophenyl)-1-[(4-cyano-2-pyridyl)methyl]-1-cyclopentyl-urea] fall in the same range of IC50: 0.1 to 0.5 µM for the first, 0.1 to 0.5 µM for the second.

First: N#Cc1cncc(CN(C(=O)Nc2ccc(Cl)cc2)C2CCCC2)c1 [Compound 115, 3-(4-chlorophenyl)-1-[(5-cyano-3-pyridyl)methyl]-1-cyclopentyl-urea]
Second: O=C(Nc1ccc(Cl)cc1)N(Cc1ccon1)C1CCCC1 [Compound 149, 3-(4-chlorophenyl)-1-cyclopentyl-1-(isoxazol-3-ylmethyl)urea]
The IC50 of the first is lower: 0.1 to 0.5 µM for the first, 0.5 to 1 µM for the second. The first is the more potent here.

First: CC(C)(C)OC(=O)N1CCC(CN(C(=O)Nc2ccc(Cl)cc2)C2CCCC2)CC1 [Compound 120, tert-butyl 4-[[(4-chlorophenyl)carbamoyl-cyclopentyl-amino]methyl]piperidine-1-carboxylate]
Second: Cc1ccc(CN(C(=O)Nc2ccccc2)C2CCN(C(=O)OC(C)(C)C)CC2)o1 [Compound 136, tert-butyl 4-[(5-methyl-2-furyl)methyl-(phenylcarbamoyl)amino]piperidine-1-carboxylate]
The IC50 of the first is lower: 0.1 to 0.5 µM for the first, > 5 µM for the second.

Compared with `NC(=O)c1cc(CN(C(=O)Nc2ccc(F)cc2)C2CCCC2)ccc1F` [Compound 122, 5-[[cyclopentyl-[(4-fluorophenyl)carbamoyl]amino]methyl]-2-fluoro-benzamide], `O=C(Nc1ccc(F)cc1)N(Cc1ccno1)C1CCCC1` [Compound 127, 1-cyclopentyl-3-(4-fluorophenyl)-1-(isoxazol-5-ylmethyl)urea] is higher in IC50: 1 to 5 µM for the first, > 5 µM for the second.

Compared with `N#Cc1cccc(CN(C(=O)Nc2ccccc2)C2CCCC2)n1` [Compound 125, 1-[(6-cyano-2-pyridyl)methyl]-1-cyclopentyl-3-phenyl-urea], `N#Cc1cccc(CN(C(=O)Nc2ccc(F)cc2)C2CCCC2)n1` [Compound 126, 1-[(6-cyano-2-pyridyl)methyl]-1-cyclopentyl-3-(4-fluorophenyl)urea] is lower in IC50: 1 to 5 µM for the first, 0.5 to 1 µM for the second. The second is the more potent here.

Compared with `O=C(Nc1ccc(Cl)cc1)N(Cc1ccno1)C1CCCC1` [Compound 128, 3-(4-chlorophenyl)-1-cyclopentyl-1-(isoxazol-5-ylmethyl)urea], `Cc1ncc(CN(C(=O)Nc2ccc(F)cc2)C2CCCC2)o1` [Compound 145, 1-cyclopentyl-3-(4-fluorophenyl)-1-[(2-methyloxazol-5-yl)methyl]urea] is higher in IC50: 0.5 to 1 µM for the first, 1 to 5 µM for the second.

Compared with `Cc1ccc(CN(C(=O)Nc2nc(-c3ccccc3)cs2)C2CCCC2)o1` [Compound 129, 1-cyclopentyl-1-[(5-methyl-2-furyl)methyl]-3-(4-phenylthiazol-2-yl)urea], `Cc1ccc(CN(C(=O)Nc2nc(-c3ccccn3)cs2)C2CCCC2)o1` [Compound 133, 1-cyclopentyl-1-[(5-methyl-2-furyl)methyl]-3-[4-(2-pyridyl)thiazol-2-yl]urea] is lower in IC50: 1 to 5 µM for the first, 0.1 to 0.5 µM for the second.

First: N#Cc1ccc(NC(=O)N(Cc2cc3ccccc3o2)C2CCCC2)cc1 [Compound 132, 1-(benzofuran-2-ylmethyl)-3-(4-cyanophenyl)-1-cyclopentyl-urea]
Second: Cc1ccc(CN(C(=O)Nc2nnc(-c3cc4ccccc4o3)o2)C2CCCC2)o1 [Compound 151, 3-[5-(benzofuran-2-yl)-1,3,4-oxadiazol-2-yl]-1-cyclopentyl-1-[(5-methyl-2-furyl)methyl]urea]
The IC50 of the first is lower: 0.1 to 0.5 µM for the first, 0.5 to 1 µM for the second.

First: Cc1ccc(CN(C(=O)Nc2nc3ccccc3s2)C2CCCC2)o1 [Compound 134, 3-(1,3-benzothiazol-2-yl)-1-cyclopentyl-1-[(5-methyl-2-furyl)methyl]urea]
Second: Cc1ccc(CN(C(=O)Nc2nc(C#N)cs2)C2CCCC2)o1 [Compound 135, 3-(4-cyanothiazol-2-yl)-1-cyclopentyl-1-[(5-methyl-2-furyl)methyl]urea]
The IC50 of the first is lower: 0.5 to 1 µM for the first, 1 to 5 µM for the second. The first is the more potent here.

`Cc1ccc(CN(C(=O)Nc2ccccc2)C(C)C)o1` [Compound 138, 1-isopropyl-1-[(5-methyl-2-furyl)methyl]-3-phenyl-urea] and `Cc1ncc(CN(C(=O)Nc2ccccc2)C2CCCC2)o1` [Compound 143, 1-cyclopentyl-1-[(2-methyloxazol-5-yl)methyl]-3-phenyl-urea] fall in the same range of IC50: 1 to 5 µM for the first, 1 to 5 µM for the second.

First: O=C(Nc1ccc(F)c(F)c1)N(Cc1cccc(OC(F)(F)F)c1)C1CCCC1 [Compound 142, 1-cyclopentyl-3-(3,4-difluorophenyl)-1-[[3 (trifluoromethoxy)phenyl]methyl]urea]
Second: N#Cc1ccc(NC(=O)N(Cc2ccnc(C(F)(F)F)c2)C2CCC2)cc1 [Compound 152, 3-(4-cyanophenyl)-1-cyclobutyl-1-[[2-(trifluoromethyl)-4-pyridyl]methyl]urea]
The IC50 of the first is higher: 1 to 5 µM for the first, 0.1 to 0.5 µM for the second.
